Test results: PubChem BioAssay AID2060503 (Molecular Pharmacology Branch, DTP, NCI, 2025)

What follows are compounds tested on 817829-284-R-J1-PDC complex spheroids, viability (assay: Anticancer human tumor 817829-284-R-J1-PDC patient-derived colon adenocarcinoma cell line growth inhibition [GQUAD]). Settings: second compound 10 µM; first compound 0.0316 µM; active compounds read low.
How it was run: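 Multi-cell-type spheroids of tumor cells with HUVEC and mesenchymal stem cells, treated with drug combinations. Concentrations descend in half-log steps from near clinical Cmax, or from 10 microM where Cmax is unknown; viability read-out.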
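Also: spheroids exposed to agents for 7 days before readout; percent viability relative to DMSO vehicle control taken as 100%.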

Row | Compound | viability, T/C [%]
1 | CC1COCCN1c1cc(-c2ccnn2C)c2ccnc(-c3ccn[nH]3)c2n1 (configuration not stated) + CN(C)c1ccc(Nc2c3ccc(NC(=O)CCN4CCCC4)cc3nc3cc(NC(=O)CCN4CCCC4)ccc23)cc1 | 25
2 | CC1COCCN1c1cc(C2(O)CC3CCC(C2)O3)c2cnn(-c3ccn[nH]3)c2n1 (configuration not stated) + CN(C)c1ccc(Nc2c3ccc(NC(=O)CCN4CCCC4)cc3nc3cc(NC(=O)CCN4CCCC4)ccc23)cc1 | 20.2
3 | CC1COCCN1c1cc(C2(S(C)(=N)=O)CC2)nc(-c2ccnc3[nH]ccc23)n1 (configuration not stated) + CN(C)c1ccc(Nc2c3ccc(NC(=O)CCN4CCCC4)cc3nc3cc(NC(=O)CCN4CCCC4)ccc23)cc1 | 99.6
4 | COc1ccc([C@@H](O)c2cc(-c3ncnc4cc(N5CCOCC5)ccc34)c(F)cc2Cl)nn1 + CN(C)c1ccc(Nc2c3ccc(NC(=O)CCN4CCCC4)cc3nc3cc(NC(=O)CCN4CCCC4)ccc23)cc1 | 107
5 | Cn1ncnc1[C@H]1c2n[nH]c(=O)c3cc(F)cc(c23)N[C@@H]1c1ccc(F)cc1 + CN(C)c1ccc(Nc2c3ccc(NC(=O)CCN4CCCC4)cc3nc3cc(NC(=O)CCN4CCCC4)ccc23)cc1 | 81.2

Same assay, conditions: second compound 10 µM; first compound 0.0999 µM; active compounds read low

Row | Compound | viability, T/C [%]
6 | Cn1ncnc1[C@H]1c2n[nH]c(=O)c3cc(F)cc(c23)N[C@@H]1c1ccc(F)cc1 + CN(C)c1ccc(Nc2c3ccc(NC(=O)CCN4CCCC4)cc3nc3cc(NC(=O)CCN4CCCC4)ccc23)cc1 | 79.1

Same assay, conditions: second compound 10 µM; first compound 0.1 µM; active compounds read low

Row | Compound | viability, T/C [%]
7 | CC(C)n1c(=O)n(C)c2cnc3cc(F)c(-c4ccc(OCCCN5CCCCC5)nc4)cc3c21 + CN(C)c1ccc(Nc2c3ccc(NC(=O)CCN4CCCC4)cc3nc3cc(NC(=O)CCN4CCCC4)ccc23)cc1 | 61.9
8 | CC1COCCN1c1cc(-c2ccnn2C)c2ccnc(-c3ccn[nH]3)c2n1 (configuration not stated) + CN(C)c1ccc(Nc2c3ccc(NC(=O)CCN4CCCC4)cc3nc3cc(NC(=O)CCN4CCCC4)ccc23)cc1 | 16.9
9 | CC1COCCN1c1cc(C2(O)CC3CCC(C2)O3)c2cnn(-c3ccn[nH]3)c2n1 (configuration not stated) + CN(C)c1ccc(Nc2c3ccc(NC(=O)CCN4CCCC4)cc3nc3cc(NC(=O)CCN4CCCC4)ccc23)cc1 | 13.6
10 | CC1COCCN1c1cc(C2(S(C)(=N)=O)CC2)nc(-c2ccnc3[nH]ccc23)n1 (configuration not stated) + CN(C)c1ccc(Nc2c3ccc(NC(=O)CCN4CCCC4)cc3nc3cc(NC(=O)CCN4CCCC4)ccc23)cc1 | 87.9
11 | COc1ccc([C@@H](O)c2cc(-c3ncnc4cc(N5CCOCC5)ccc34)c(F)cc2Cl)nn1 + CN(C)c1ccc(Nc2c3ccc(NC(=O)CCN4CCCC4)cc3nc3cc(NC(=O)CCN4CCCC4)ccc23)cc1 | 85.9

Same assay, conditions: second compound 10 µM; first compound 0.316 µM; active compounds read low

Row | Compound | viability, T/C [%]
12 | CC(C)n1c(=O)n(C)c2cnc3cc(F)c(-c4ccc(OCCCN5CCCCC5)nc4)cc3c21 + CN(C)c1ccc(Nc2c3ccc(NC(=O)CCN4CCCC4)cc3nc3cc(NC(=O)CCN4CCCC4)ccc23)cc1 | 51.7
13 | CC1COCCN1c1cc(-c2ccnn2C)c2ccnc(-c3ccn[nH]3)c2n1 (configuration not stated) + CN(C)c1ccc(Nc2c3ccc(NC(=O)CCN4CCCC4)cc3nc3cc(NC(=O)CCN4CCCC4)ccc23)cc1 | 8.98
14 | CC1COCCN1c1cc(C2(O)CC3CCC(C2)O3)c2cnn(-c3ccn[nH]3)c2n1 (configuration not stated) + CN(C)c1ccc(Nc2c3ccc(NC(=O)CCN4CCCC4)cc3nc3cc(NC(=O)CCN4CCCC4)ccc23)cc1 | 7.79
15 | CC1COCCN1c1cc(C2(S(C)(=N)=O)CC2)nc(-c2ccnc3[nH]ccc23)n1 (configuration not stated) + CN(C)c1ccc(Nc2c3ccc(NC(=O)CCN4CCCC4)cc3nc3cc(NC(=O)CCN4CCCC4)ccc23)cc1 | 57.1
16 | COc1ccc([C@@H](O)c2cc(-c3ncnc4cc(N5CCOCC5)ccc34)c(F)cc2Cl)nn1 + CN(C)c1ccc(Nc2c3ccc(NC(=O)CCN4CCCC4)cc3nc3cc(NC(=O)CCN4CCCC4)ccc23)cc1 | 85.7
17 | Cn1ncnc1[C@H]1c2n[nH]c(=O)c3cc(F)cc(c23)N[C@@H]1c1ccc(F)cc1 + CN(C)c1ccc(Nc2c3ccc(NC(=O)CCN4CCCC4)cc3nc3cc(NC(=O)CCN4CCCC4)ccc23)cc1 | 63.4

Same assay, conditions: second compound 10 µM; first compound 1 µM; active compounds read low

Row | Compound | viability, T/C [%]
18 | CC(C)n1c(=O)n(C)c2cnc3cc(F)c(-c4ccc(OCCCN5CCCCC5)nc4)cc3c21 + CN(C)c1ccc(Nc2c3ccc(NC(=O)CCN4CCCC4)cc3nc3cc(NC(=O)CCN4CCCC4)ccc23)cc1 | 46
19 | CC1COCCN1c1cc(-c2ccnn2C)c2ccnc(-c3ccn[nH]3)c2n1 (configuration not stated) + CN(C)c1ccc(Nc2c3ccc(NC(=O)CCN4CCCC4)cc3nc3cc(NC(=O)CCN4CCCC4)ccc23)cc1 | 6.93
20 | CC1COCCN1c1cc(C2(O)CC3CCC(C2)O3)c2cnn(-c3ccn[nH]3)c2n1 (configuration not stated) + CN(C)c1ccc(Nc2c3ccc(NC(=O)CCN4CCCC4)cc3nc3cc(NC(=O)CCN4CCCC4)ccc23)cc1 | 6.03
21 | CC1COCCN1c1cc(C2(S(C)(=N)=O)CC2)nc(-c2ccnc3[nH]ccc23)n1 (configuration not stated) + CN(C)c1ccc(Nc2c3ccc(NC(=O)CCN4CCCC4)cc3nc3cc(NC(=O)CCN4CCCC4)ccc23)cc1 | 20.3
22 | COc1ccc([C@@H](O)c2cc(-c3ncnc4cc(N5CCOCC5)ccc34)c(F)cc2Cl)nn1 + CN(C)c1ccc(Nc2c3ccc(NC(=O)CCN4CCCC4)cc3nc3cc(NC(=O)CCN4CCCC4)ccc23)cc1 | 47.5

Same assay, conditions: second compound 10 µM; first compound 3.16 µM; active compounds read low

Row | Compound | viability, T/C [%]
23 | CC(C)n1c(=O)n(C)c2cnc3cc(F)c(-c4ccc(OCCCN5CCCCC5)nc4)cc3c21 + CN(C)c1ccc(Nc2c3ccc(NC(=O)CCN4CCCC4)cc3nc3cc(NC(=O)CCN4CCCC4)ccc23)cc1 | 21
24 | CC1COCCN1c1cc(-c2ccnn2C)c2ccnc(-c3ccn[nH]3)c2n1 (configuration not stated) + CN(C)c1ccc(Nc2c3ccc(NC(=O)CCN4CCCC4)cc3nc3cc(NC(=O)CCN4CCCC4)ccc23)cc1 | 5.14
25 | CC1COCCN1c1cc(C2(O)CC3CCC(C2)O3)c2cnn(-c3ccn[nH]3)c2n1 (configuration not stated) + CN(C)c1ccc(Nc2c3ccc(NC(=O)CCN4CCCC4)cc3nc3cc(NC(=O)CCN4CCCC4)ccc23)cc1 | 5.19
26 | CC1COCCN1c1cc(C2(S(C)(=N)=O)CC2)nc(-c2ccnc3[nH]ccc23)n1 (configuration not stated) + CN(C)c1ccc(Nc2c3ccc(NC(=O)CCN4CCCC4)cc3nc3cc(NC(=O)CCN4CCCC4)ccc23)cc1 | 9.51
27 | COc1ccc([C@@H](O)c2cc(-c3ncnc4cc(N5CCOCC5)ccc34)c(F)cc2Cl)nn1 + CN(C)c1ccc(Nc2c3ccc(NC(=O)CCN4CCCC4)cc3nc3cc(NC(=O)CCN4CCCC4)ccc23)cc1 | 31.3

Same assay, conditions: second compound 10 µM; first compound 10 µM; active compounds read low

Row | Compound | viability, T/C [%]
28 | CC(C)n1c(=O)n(C)c2cnc3cc(F)c(-c4ccc(OCCCN5CCCCC5)nc4)cc3c21 + CN(C)c1ccc(Nc2c3ccc(NC(=O)CCN4CCCC4)cc3nc3cc(NC(=O)CCN4CCCC4)ccc23)cc1 | 13.2
29 | CC1COCCN1c1cc(-c2ccnn2C)c2ccnc(-c3ccn[nH]3)c2n1 (configuration not stated) + CN(C)c1ccc(Nc2c3ccc(NC(=O)CCN4CCCC4)cc3nc3cc(NC(=O)CCN4CCCC4)ccc23)cc1 | 3.02
30 | CC1COCCN1c1cc(C2(O)CC3CCC(C2)O3)c2cnn(-c3ccn[nH]3)c2n1 (configuration not stated) + CN(C)c1ccc(Nc2c3ccc(NC(=O)CCN4CCCC4)cc3nc3cc(NC(=O)CCN4CCCC4)ccc23)cc1 | 3.21
31 | CC1COCCN1c1cc(C2(S(C)(=N)=O)CC2)nc(-c2ccnc3[nH]ccc23)n1 (configuration not stated) + CN(C)c1ccc(Nc2c3ccc(NC(=O)CCN4CCCC4)cc3nc3cc(NC(=O)CCN4CCCC4)ccc23)cc1 | 5
32 | COc1ccc([C@@H](O)c2cc(-c3ncnc4cc(N5CCOCC5)ccc34)c(F)cc2Cl)nn1 + CN(C)c1ccc(Nc2c3ccc(NC(=O)CCN4CCCC4)cc3nc3cc(NC(=O)CCN4CCCC4)ccc23)cc1 | 13.5
